How the values were obtained:
Experiment in all cases: relative viability (nuclei count vs DMSO), 5 days (fraction); higher = more cells survive
[1] = compound: COc1cc2nccc(Oc3ccc(NC(=O)C4(C(=O)Nc5ccc(F)cc5)CC4)cc3)c2cc1OC [Cabozantinib] + CCNC(=O)c1noc(-c2cc(C(C)C)c(O)cc2O)c1-c1ccc(CN2CCOCC2)cc1 [Luminespib] (partner 0.01 µM)
How it was run: (§1)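 Lung cancer cell lines were pin-tool dosed in 1536-well plates on the day after seeding, with either a lone drug or a fixed anchor-drug dose plus five library-drug doses (not always all listed) in √10 steps. Nuclei were counted on 4× images after 5 days. Relative viability is the ratio of treated-well to vehicle-well nuclei counts, with each value a median of duplicate plates.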

Cabozantinib + Foretinib = compound: COc1cc2nccc(Oc3ccc(NC(=O)C4(C(=O)Nc5ccc(F)cc5)CC4)cc3)c2cc1OC [Cabozantinib] + COc1cc2c(Oc3ccc(NC(=O)C4(C(=O)Nc5ccc(F)cc5)CC4)cc3F)ccnc2cc1OCCCN1CCOCC1 [Foretinib] (partner 0.25 µM)
How it was run: as §1

Zosuquidar + OSI-027 = compound: O[C@@H](COc1cccc2ncccc12)CN1CCN([C@@H]2c3ccccc3[C@@H]3[C@H](c4ccccc42)C3(F)F)CC1 [Zosuquidar] + COc1cccc2cc(-c3nc([C@H]4CC[C@H](C(=O)O)CC4)n4ncnc(N)c34)[nH]c12 [OSI-027] (partner 0.5 µM)
How it was run: as §1

Zosuquidar + Pemetrexed = compound: O[C@@H](COc1cccc2ncccc12)CN1CCN([C@@H]2c3ccccc3[C@@H]3[C@H](c4ccccc42)C3(F)F)CC1 [Zosuquidar] + Nc1nc2[nH]cc(CCc3ccc(C(=O)N[C@@H](CCC(=O)O)C(=O)O)cc3)c2c(=O)[nH]1 [Pemetrexed] (partner 0.2 µM)
How it was run: as §1

UMC-11
relative viability ([1]; first compound 0.02 µM): 0.941 | relative viability ([1]; first compound 0.06325 µM): 1.09 | relative viability ([1]; first compound 0.2 µM): 1.1 | relative viability ([1]; first compound 0.6325 µM): 1.09 | relative viability ([1]; first compound 2 µM): 1.09 | relative viability (Cabozantinib + Foretinib; first compound 0.02 µM): 0.959 | relative viability (Cabozantinib + Foretinib; first compound 0.06325 µM): 1.21 | relative viability (Cabozantinib + Foretinib; first compound 0.2 µM): 1.01 | relative viability (Cabozantinib + Foretinib; first compound 0.6325 µM): 1.03 | relative viability (Cabozantinib + Foretinib; first compound 2 µM): 0.942 | relative viability (Zosuquidar + OSI-027; first compound 0.01 µM): 0.439 | relative viability (Zosuquidar + OSI-027; first compound 0.03162 µM): 0.511 | relative viability (Zosuquidar + OSI-027; first compound 0.1 µM): 0.462 | relative viability (Zosuquidar + OSI-027; first compound 0.3162 µM): 0.483 | relative viability (Zosuquidar + OSI-027; first compound 1 µM): 0.501 | relative viability (Zosuquidar + Pemetrexed; first compound 0.01 µM): 0.739 | relative viability (Zosuquidar + Pemetrexed; first compound 0.03162 µM): 0.739 | relative viability (Zosuquidar + Pemetrexed; first compound 0.1 µM): 0.894 | relative viability (Zosuquidar + Pemetrexed; first compound 0.3162 µM): 0.858 | relative viability (Zosuquidar + Pemetrexed; first compound 1 µM): 0.86

— the supplement of paper PMC10307832
